Like-named read-outs stand apart in the source and are kept apart here. Where a SMILES comes first, the peptide text is derived from it. Bridges are numbered along the chain shown (N, C = ends). [ ]: non-standard residue; d: D form. The star is where a group is joined. hPhe(3,5-F2-4-CF3) = N[C@@H](CCc1cc(F)c(C(F)(F)F)c(F)c1)C(=O)O; hPhe(3-Cl-4-CF3) = N[C@@H](CCc1ccc(C(F)(F)F)c(Cl)c1)C(=O)O; NPrPhe(4-CF3) = CCCN[C@@H](Cc1ccc(C(F)(F)F)cc1)C(=O)O; NEtPhe(4-CF3) = CCN[C@@H](Cc1ccc(C(F)(F)F)cc1)C(=O)O; NMeAbu(4,4,4-F3) = CN[C@@H](CC(F)(F)F)C(=O)O; NMePhe(4-Me) = CN[C@@H](Cc1ccc(C)cc1)C(=O)O; NMeGly(cPent) = CN[C@H](C(=O)O)C1CCCC1; Ac4c(3,3-F2) = NC1(C(=O)O)CC(F)(F)C1; NMeGly(cBu) = CN[C@H](C(=O)O)C1CCC1; Hyp = O=C(O)[C@@H]1C[C@@H](O)CN1; NMeD = CN[C@@H](CC(=O)O)C(=O)O; NMeL = CN[C@@H](CC(C)C)C(=O)O; NMeAbu = CC[C@H](NC)C(=O)O; Morpholide = C1CN(*)CCO1; NMeA = CN[C@@H](C)C(=O)O; Ac5c = NC1(C(=O)O)CCCC1; Aze = O=C(O)[C@@H]1CCN1; Aib = CC(C)(N)C(=O)O; NEtG = CCNCC(=O)O; Sar = CNCC(=O)O
Columns and labels:
[1] = biological target: GDP-bound HRAS wild-type protein (Homo sapiens, UniProt P01112); test: Binding to HRAS by surface plasmon resonance (SPR), Single Cycle Kinetics; conditions: SPR, GDP-bound HRAS wild-type protein vs GDP-bound KRAS wild-type protein
Chain of GDP-bound HRAS wild-type protein (P01112 whole entry): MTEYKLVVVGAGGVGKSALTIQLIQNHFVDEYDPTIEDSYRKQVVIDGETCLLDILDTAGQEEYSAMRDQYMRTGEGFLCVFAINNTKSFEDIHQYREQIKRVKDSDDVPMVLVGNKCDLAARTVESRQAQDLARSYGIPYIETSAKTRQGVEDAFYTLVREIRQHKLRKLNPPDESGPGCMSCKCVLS

[2] = biological target: GDP-bound KRAS wild-type protein (Homo sapiens, UniProt P01116); test: Binding to KRAS by surface plasmon resonance (SPR), Single Cycle Kinetics; conditions: GDP-bound KRAS wild-type protein, read-out: KRAS KD
Chain of GDP-bound KRAS wild-type protein (P01116 whole entry): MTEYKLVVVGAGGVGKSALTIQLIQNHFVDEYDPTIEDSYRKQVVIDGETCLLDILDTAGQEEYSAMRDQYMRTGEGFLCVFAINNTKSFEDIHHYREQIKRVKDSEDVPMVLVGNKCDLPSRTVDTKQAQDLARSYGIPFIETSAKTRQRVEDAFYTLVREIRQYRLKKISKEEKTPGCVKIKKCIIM

[3] = biological target: GDP-bound NRAS wild-type protein (Homo sapiens, UniProt P01111); test: Binding to NRAS by surface plasmon resonance (SPR), Single Cycle Kinetics; conditions: SPR, GDP-bound NRAS wild-type protein vs GDP-bound KRAS wild-type protein
Chain of GDP-bound NRAS wild-type protein (P01111 whole entry): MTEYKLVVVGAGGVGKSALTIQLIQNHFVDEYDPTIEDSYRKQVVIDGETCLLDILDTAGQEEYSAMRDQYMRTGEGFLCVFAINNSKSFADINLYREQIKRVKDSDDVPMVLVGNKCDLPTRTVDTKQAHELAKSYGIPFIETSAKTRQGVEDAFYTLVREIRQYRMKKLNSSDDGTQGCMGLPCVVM

[4] = SPR Single Cycle Kinetics, 1:1 binding model

Structure (SMILES)	HRAS/KRAS (ratio of KD value with respect to HRAS to KD value with respect to KRAS) [1]	Kd [2, 4] [nM]	NRAS/KRAS (ratio of KD value with respect to NRAS to KD value with respect to KRAS) [3]	HRAS/KRAS (ratio of KD value for HRAS to KD value for KRAS) [1]	NRAS/KRAS (ratio of KD value for NRAS to KD value for KRAS) [3]	also measured
CCCN1C(=O)CN(C)C(=O)[C@@H]2CCN2C(=O)[C@H]([C@@H](C)CC)NC(=O)[C@H](CC(C)C)N(C)C(=O)C[C@@H](C(=O)N2CCOCC2)N(C)C(=O)[C@H](CC(F)(F)F)N(C)C(=O)C2(CCCC2)NC(=O)[C@@H]2CCCN2C(=O)[C@H](CCc2cc(F)c(C(F)(F)F)c(F)c2)NC(=O)CN(C)C(=O)[C@@H]1Cc1ccc(C(F)(F)F)cc1 [PP0784] ([NMeL]I[Aze][Sar][NPrPhe(4-CF3)][Sar][hPhe(3,5-F2-4-CF3)]P[Ac5c][NMeAbu(4,4,4-F3)][NMeD]-Morpholide; lactam N-11)	B (a compound having 3 or more and less than 10 is denoted as B)	17	B (a compound having 3 or more and less than 10 is denoted as B)	–	–	–
CCO[C@@H]1C[C@H]2C(=O)NC3(CCC3)C(=O)N(C)[C@@H](C3CCCC3)C(=O)N(C)[C@H](C(=O)N(C)CCOC)CC(=O)N(C)[C@@H](CC(F)F)C(=O)N[C@@H]([C@@H](C)CC)C(=O)N(C)CC(=O)N(C)[C@H]3C/C=C\CCN(C3=O)[C@@H](Cc3ccc(C(F)(F)F)cc3)C(=O)N(C)CC(=O)N[C@@H](CCc3cc(F)c(C(F)(F)F)c(F)c3)C(=O)N2C1 [PP1320]	–	–	–	–	–	HRAS/KRAS (ratio of KD value for HRAS to KD value for KRAS) ([1]; KD ratio class): A (a compound having 10 or more and less than 20 is denoted as A); Kd ([2]; SPR, Single Cycle Kinetics, 1:1 binding model): 0.057 nM; NRAS/KRAS (ratio of KD value for NRAS to KD value for KRAS) ([3]; KD ratio class): A (a compound having 10 or more and less than 20 is denoted as A)
CCCN1C(=O)CN(C)C(=O)CN(C)C(=O)[C@H]([C@@H](C)CC)NC(=O)[C@H](CC(C)C)N(C)C(=O)C[C@@H](C(=O)N2CCOCC2)N(C)C(=O)[C@H](C2CCCC2)N(C)C(=O)C2(CC(F)(F)C2)NC(=O)[C@@H]2CCCN2C(=O)[C@H](CCc2cc(F)c(C(F)(F)F)c(F)c2)NC(=O)CN(C)C(=O)[C@@H]1Cc1ccc(C(F)(F)F)cc1 [PP0766] ([NMeL]I[Sar][Sar][NPrPhe(4-CF3)][Sar][hPhe(3,5-F2-4-CF3)]P[Ac4c(3,3-F2)][NMeGly(cPent)][NMeD]-Morpholide; lactam N-11)	B (a compound having 3 or more and less than 10 is denoted as B)	0.096	B (a compound having 3 or more and less than 10 is denoted as B)	–	–	–
CC[C@H](C)[C@@H]1NC(=O)[C@H](CC(C)C)N(C)C(=O)C[C@@H](C(=O)N2CCOCC2)N(C)C(=O)[C@H](C2CCCC2)N(C)C(=O)C2(CCCC2)NC(=O)[C@@H]2CCCN2C(=O)[C@H](CCc2ccc(C(F)(F)F)c(Cl)c2)NC(=O)CN(CC)C(=O)[C@H](Cc2ccc(C)cc2)N(C)C(=O)[C@@H]2CCN2C(=O)[C@H](C)N(C)C1=O [PP0004] ([NMeL]I[NMeA][Aze][NMePhe(4-Me)][NEtG][hPhe(3-Cl-4-CF3)]P[Ac5c][NMeGly(cPent)][NMeD]-Morpholide; lactam N-11)	–	2.4	–	C (A compound having a KD ratio of 0.1 or more and less than 3 is denoted as C)	C (A compound having a KD ratio of 0.1 or more and less than 3 is denoted as C)	–
CC[C@H](C)[C@@H]1NC(=O)[C@H](CC(C)C)N(C)C(=O)C[C@@H](C(=O)N(C)C)N(C)C(=O)[C@H](C2CCCC2)N(C)C(=O)C2(CCC2)NC(=O)[C@@H]2CCCN2C(=O)[C@H](CCc2cc(F)c(C(F)(F)F)c(F)c2)NC(=O)CN(C)C(=O)[C@H](Cc2ccc(C(F)(F)F)cc2)N2CCCCC[C@@H](C2=O)N(C)C(=O)CN(C)C1=O [PP0512]	B (a compound having 3 or more and less than 10 is denoted as B)	0.37	B (a compound having 3 or more and less than 10 is denoted as B)	–	–	–
CC[C@H](C)[C@@H]1NC(=O)[C@H](CC(C)C)N(C)C(=O)C[C@@H](C(=O)N2CCOCC2)N(C)C(=O)[C@H](C2CCCC2)N(C)C(=O)C(C)(C)NC(=O)[C@@H]2CCCN2C(=O)[C@H](CCc2ccc(C(F)(F)F)c(Cl)c2)NC(=O)CN(C)C(=O)[C@H](Cc2ccc(C(F)(F)F)cc2)N(CC)C(=O)[C@@H]2CCN2C(=O)[C@H](C)N(C)C1=O [PP0221] ([NMeL]I[NMeA][Aze][NEtPhe(4-CF3)][Sar][hPhe(3-Cl-4-CF3)]P[Aib][NMeGly(cPent)][NMeD]-Morpholide; lactam N-11)	–	0.19	–	C (A compound having a KD ratio of 0.1 or more and less than 3 is denoted as C)	C (A compound having a KD ratio of 0.1 or more and less than 3 is denoted as C)	–
CCO[C@@H]1C[C@H]2C(=O)NC3(CCC3)C(=O)N(C)[C@@H](C3CCCC3)C(=O)N(C)[C@H](C(=O)N(C)C)CC(=O)N(C)[C@@H](CC)C(=O)N[C@@H]([C@@H](C)CC)C(=O)N3CC[C@H]3C(=O)N(C)[C@H]3C/C=C\CCN(C3=O)[C@@H](Cc3ccc(C(F)(F)F)cc3)C(=O)N(C)CC(=O)N[C@@H](CCc3cc(F)c(C(F)(F)F)c(F)c3)C(=O)N2C1 [PP0984]	–	–	–	A (a compound having 10 or more and less than 20 is denoted as A)	A (a compound having 10 or more and less than 20 is denoted as A)	Kd ([2]; SPR, Single Cycle Kinetics): 0.28 nM
C#CCN1CC(=O)N(C)[C@H]2C/C=C\CCN(C2=O)[C@@H](Cc2ccc(C(F)(F)F)cc2)C(=O)N(C)CC(=O)N[C@@H](CCc2cc(F)c(C(F)(F)F)c(F)c2)C(=O)N2C[C@H](OCC)C[C@H]2C(=O)NC2(CC(C)(C)C2)C(=O)N(C)[C@@H](C2CCCC2)C(=O)N(C)[C@H](C(=O)N(C)C)CC(=O)N(C)[C@@H](CCC)C(=O)N[C@@H]([C@@H](C)CC)C1=O [PP2103]	–	–	–	A (a compound having 10 or more and less than 20 is denoted as A)	A (a compound having 10 or more and less than 20 is denoted as A)	Kd ([2]; SPR, Single Cycle Kinetics): 0.25 nM
CCCN1C(=O)CN(C)C(=O)CN(C)C(=O)[C@H]([C@@H](C)CC)NC(=O)[C@H](CC(C)C)N(C)C(=O)C[C@@H](C(=O)N2CCOCC2)N(C)C(=O)[C@H](CC(F)(F)F)N(C)C(=O)C2(CCCC2)NC(=O)[C@@H]2CCCN2C(=O)[C@H](CCc2cc(F)c(C(F)(F)F)c(F)c2)NC(=O)CN(C)C(=O)[C@@H]1Cc1ccc(C(F)(F)F)cc1 [PP0767] ([NMeL]I[Sar][Sar][NPrPhe(4-CF3)][Sar][hPhe(3,5-F2-4-CF3)]P[Ac5c][NMeAbu(4,4,4-F3)][NMeD]-Morpholide; lactam N-11)	C (A compound having a KD ratio of 0.1 or more and less than 3 is denoted as C)	1.9	B (a compound having 3 or more and less than 10 is denoted as B)	–	–	–
CCCN1C(=O)CN(C)C(=O)CN(CC)C(=O)[C@H]([C@@H](C)CC)NC(=O)[C@H](CC(C)C)N(C)C(=O)C[C@@H](C(=O)N2CCOCC2)NC(=O)[C@H](C2CCCC2)N(C)C(=O)C2(CCCC2)NC(=O)[C@@H]2C[C@@H](OCC)CN2C(=O)[C@H](CCc2ccc(C(F)(F)F)c(Cl)c2)NC(=O)CN(C)C(=O)[C@@H]1Cc1ccc(C(F)(F)F)cc1 [PP0335] ([NMeL]I[NEtG][Sar][NPrPhe(4-CF3)][Sar][hPhe(3-Cl-4-CF3)][Hyp](Et)[Ac5c][NMeGly(cPent)]D-Morpholide; lactam N-11)	–	1.3	–	C (A compound having a KD ratio of 0.1 or more and less than 3 is denoted as C)	B (a compound having 3 or more and less than 10 is denoted as B)	–
CCCN1C(=O)CN(C)C(=O)CN(C)C(=O)[C@H]([C@@H](C)CC)NC(=O)[C@H](CC)N(C)C(=O)C[C@@H](C(=O)N2CCOCC2)N(C)C(=O)[C@H](C2CCCC2)N(C)C(=O)C2(CCCC2)NC(=O)[C@@H]2CCCN2C(=O)[C@H](CCc2ccc(C(F)(F)F)c(Cl)c2)NC(=O)CN(C)C(=O)[C@@H]1Cc1ccc(C(F)(F)F)cc1 [PP0190] ([NMeAbu]I[Sar][Sar][NPrPhe(4-CF3)][Sar][hPhe(3-Cl-4-CF3)]P[Ac5c][NMeGly(cPent)][NMeD]-Morpholide; lactam N-11)	–	0.13	–	B (a compound having 3 or more and less than 10 is denoted as B)	B (a compound having 3 or more and less than 10 is denoted as B)	–
CCCN1C(=O)[C@@H]2CCN2C(=O)[C@H](C)N(C)C(=O)[C@H]([C@@H](C)CC)NC(=O)[C@H](C2CCC2)N(C)C(=O)C[C@@H](C(=O)N2CCOCC2)N(C)C(=O)[C@H](C2CCCC2)N(C)C(=O)C2(CCCC2)NC(=O)[C@@H]2CCCN2C(=O)[C@H](CCc2ccc(C(F)(F)F)c(Cl)c2)NC(=O)CN(C)C(=O)[C@@H]1Cc1ccc(C(F)(F)F)cc1 [PP0192] ([NMeGly(cBu)]I[NMeA][Aze][NPrPhe(4-CF3)][Sar][hPhe(3-Cl-4-CF3)]P[Ac5c][NMeGly(cPent)][NMeD]-Morpholide; lactam N-11)	–	0.19	–	B (a compound having 3 or more and less than 10 is denoted as B)	C (A compound having a KD ratio of 0.1 or more and less than 3 is denoted as C)	–
CCO[C@@H]1C[C@H]2C(=O)NC3(CC(C)(C)C3)C(=O)N(C)[C@@H](C(CC)CC)C(=O)N(C)[C@H](C(=O)N(C)C)CC(=O)N(C)[C@@H](C)C(=O)N[C@@H]([C@@H](C)CC)C(=O)N(C)CC(=O)N(C)[C@H]3C/C=C\CCN(C3=O)[C@@H](Cc3ccc(C)cc3)C(=O)N(C)CC(=O)N[C@@H](CCc3ccc(Cl)c(Cl)c3)C(=O)N2C1 [PP2186]	–	–	–	A (a compound having 10 or more and less than 20 is denoted as A)	AA (a compound having 20 or more is denoted as AA)	Kd ([2]; SPR, Single Cycle Kinetics): 2.3 nM

Reference: patent publication US20240158446A1, “CYCLIC COMPOUND HAVING SELECTIVE INHIBITORY ACTION ON KRAS OVER HRAS AND NRAS” (CHUGAI SEIYAKU KABUSHIKI KAISHA, priority 2021, published 2024)
